Data set [1] in a line: Solubility observation during MTT testing. The data set is classed as physicochemical. How it is done:
All 26 acridine-core naphthoquinone compounds were submitted to the MTT assay to assess their cytotoxicity. […] These compounds were excluded from further biological experimentation. First, the assay was conducted on the SCC9 OSCC cell line and the results were analyzed by a nonlinear regression curve to determine the value of the half maximal inhibitory concentration (IC50). […] Anticancer activities of these compounds are reported here for the first time.

The next data set deals with SCC9 (OSCC cell). As to the kind of experiment: MTT cell viability assay (cytotoxicity), SCC9. As to conditions: Homo sapiens, SCC-9; SCC9, 48 h, MTT (Table 1); read-out: SCC9—Oral Cancer IC50. Format: cell-based, human. The protocol:
Cells and reagents. Human SCC-4, SCC-9, and SCC-25 cells, derived from a human oral tongue SCC (squamous cell carcinoma) were obtained from the ATCC (CRL-1624, CRL-1629, and CRL-1628, respectively) and maintained in 1:1 DMEM/F12 (Dulbecco’s modified Eagle medium and Ham’s F12 medium; Gibco (Thermo Fisher, Waltham, MA, USA)) supplemented with 10% (v/v) FBS (fetal bovine serum; Invitrogen, Thermo Fisher, Waltham, MA, USA) and 400 ng/mL hydrocortisone (Sigma-Aldrich Co., St. Louis, MO, USA). Primary normal human gingival fibroblasts were obtained from the ATCC (PCS-201-018) and maintained in DMEM supplemented with 10% (v/v) FBS and were used in a maximum of six passages. The cells were grown in a humidified environment containing 5% CO2 at 37 °C. […] Carboplatin stock was prepared in water (Fauldcarbo®; LibbsFarmacêutica, São Paulo, SP, Brazil) and was used as a standard anticancer compound.
Cell viability assay (cytotoxicity) and compound stability assay. The viability of SCC cell lines and primary human fibroblast cells was evaluated using the MTT assay as in [48]. Briefly, the cells were grown in triplicates in 96-well plates (5 × 10^3 cells/well) until confluence. Then, the medium was removed, fresh medium was added, and the cells were returned to the incubator in the presence of different compounds. DMSO at the same concentrations was used as a 100% cell viability control. After 48 h, the cells were incubated with 5 mg/mL MTT reagent (3-(4,5-dimethyl-2-thiazolyl)-2,5-diphenyl-2-H-tetrazolium bromide) (Sigma-Aldrich Co., St. Louis, MO, USA) for 3.5 h. After that, formazan crystals were dissolved in MTT solvent solution (DMSO/methanol 1:1 v/v) and the absorbance at 560 nm was evaluated using an EPOCH microplate spectrophotometer (BioTek Instruments, Winooski, VT, USA) with the background absorbance at 670 nm subtracted.
Statistical analysis, IC50 calculation. The data are presented as means ±\SD. IC50 values for the MTT assays were obtained by nonlinear regression using the […] 5.0 program (Intuitive Software for Science, San Diego, CA, USA) from at least three independent experiments. A dose–response (inhibitor) vs. response curve using the least squares method was used to determine the IC50, SD, and R^2 of the data. The selectivity index was calculated as SI = IC50 of the compound in normal oral fibroblast cells/IC50 of the same compound for each oral cancer cell line (SCC-4, SCC-9, and SCC-25) and the mean was calculated when indicated.
(Tetrazolium dyes change colour on reduction, which living cells bring about.)

Where two headings read alike, the source gives them in different places.

As to “12-(3,3-dimethylphenyl)-3,4-dihydrobenzo[b]acridine-1,6,11(2H,5H,12H)-trione [4a]”, the solubility result in data set [1] was “highly insoluble”.
As to `CC1(C)CC(=O)C2=C(C1)NC1=C(C(=O)c3ccccc3C1=O)C2c1ccccc1Cl` (stereo not drawn) [4b, 12-(2-chlorophenyl)-3,3-dimethyl-3,4-dihydrobenzo[b]acridine-1,6,11(2H,5H,12H)-trione], the solubility entry in data set [1] (formed crystals at low concentrations in MTT assay) was “highly insoluble”.
Usually IC50 stands for the midpoint of a concentration-inhibition curve. The term melting point denotes the temperature of the solid-liquid transition. The compound `CC1(C)CC(=O)C2=C(C1)NC1=C(C(=O)c3ccccc3C1=O)C2c1cccc(Cl)c1` (stereo not drawn) [4c, 12-(3-chlorophenyl)-3,3-dimethyl-3,4-dihydrobenzo[b]acridine-1,6,11(2H,5H,12H)-trione] showed a melting point of 249 to 251 °C. Moreover, in the data set on SCC9 (OSCC cell), the IC50 turned out to be 14.7 µM.
Taken in the same sequence, the figures for `CC1(C)CC(=O)C2=C(C1)NC1=C(C(=O)c3ccccc3C1=O)C2c1ccc(Cl)cc1` (stereo not drawn) [4d, 12-(4-chlorophenyl)-3,3-dimethyl-3,4-dihydrobenzo[b]acridine-1,6,11(2H,5H,12H)-trione] were 287 to 288 °C and 51.6 µM.
In the same order, the values of `CC1(C)CC(=O)C2=C(C1)NC1=C(C(=O)c3ccccc3C1=O)C2c1ccc(Br)cc1` (stereo not drawn) [4h, 12-(4-bromophenyl)-3,3-dimethyl-3,4-dihydrobenzo[b]acridine-1,6,11(2H,5H,12H)-trione] are 293 to 295 °C and 5.86 µM.
Taken in the same sequence, the figures for `COc1ccc(C2C3=C(CC(C)(C)CC3=O)NC3=C2C(=O)c2ccccc2C3=O)cc1OC` (stereo not drawn) [4l, 12-(3,4-dimethoxyphenyl)-3,3-dimethyl-3,4-dihydrobenzo[b]acridine-1,6,11(2H,5H,12H)-trione] were 238 to 239 °C and 4.46 µM.
`O=C1CCCC2=C1C(c1cccc(Cl)c1)C1=C(N2)C(=O)c2ccccc2C1=O` (stereo not drawn) [5c, 12-(3-chlorophenyl)-3,4-dihydrobenzo[b]acridine-1,6,11(2H,5H,12H)-trione] came in with a melting point of 217 to 218 °C. Further, the half-inhibitory concentration (IC50) in the data set with SCC9 (OSCC cell) was determined as 8.93 µM.
For the compound `O=C1CCCC2=C1C(c1ccc(Cl)cc1)C1=C(N2)C(=O)c2ccccc2C1=O` (stereo not drawn) [5d, 12-(4-chlorophenyl)-3,4-dihydrobenzo[b]acridine-1,6,11(2H,5H,12H)-trione], the melting point was 230 to 231 °C. Also, the IC50 in the data set with SCC9 (OSCC cell) turned out to be 2.21 µM.
In the case of `O=C1CCCC2=C1C(c1ccc(Cl)cc1Cl)C1=C(N2)C(=O)c2ccccc2C1=O` (stereo not drawn) [5e, 12-(2.4-dichlorophenyl)-3,4-dihydrobenzo[b]acridine-1,6,11(2H,5H,12H)-trione], the 50% inhibitory concentration (IC50) in the data set on SCC9 (OSCC cell) was found to be 4.75 µM.
`O=C1CCCC2=C1C(c1ccc(Br)cc1)C1=C(N2)C(=O)c2ccccc2C1=O` (stereo not drawn) [5h, 12-(4-bromophenyl)-3,4-dihydrobenzo[b]acridine-1,6,11(2H,5H,12H)-trione] displayed a melting point of 257 to 258 °C. The IC50 with SCC9 (OSCC cell) amounted to 7.63 µM.
In the case of `COc1ccc(C2C3=C(CCCC3=O)NC3=C2C(=O)c2ccccc2C3=O)c(OC)c1` (stereo not drawn) [5j, 12-(2,4-dimethoxyphenyl)-3,4-dihydrobenzo[b]acridine-1,6,11(2H,5H,12H)-trione], the IC50 with SCC9 (OSCC cell) was 6.84 µM.
`COc1ccc(OC)c(C2C3=C(CCCC3=O)NC3=C2C(=O)c2ccccc2C3=O)c1` (stereo not drawn) [5k, 12-(2,5-dimethoxyphenyl)-3,4-dihydrobenzo[b]acridine-1,6,11(2H,5H,12H)-trione]: the melting point lay in the range of 219 to 220 °C. The IC50 in the data set on SCC9 (OSCC cell) was 7.2 µM.
Taken in the same sequence, the figures for `COc1ccc(C2C3=C(CCCC3=O)NC3=C2C(=O)c2ccccc2C3=O)cc1OC` (stereo not drawn) [5l, 12-(3,4-dimethoxyphenyl)-3,4-dihydrobenzo[b]acridine-1,6,11(2H,5H,12H)-trione] were 228 to 230 °C and 5.9 µM.
Taken in the same sequence, the figures for `COc1cc(C2C3=C(CCCC3=O)NC3=C2C(=O)c2ccccc2C3=O)cc(OC)c1OC` (stereo not drawn) [5m, 12-(3,4,5-trimethoxyphenyl)-3,4-dihydrobenzo[b]acridine-1,6,11(2H,5H,12H)-trione] were 236 to 237 °C and 3.32 µM.

The values are drawn from publication PMC9415509, “Pro-Apoptotic Antitumoral Effect of Novel Acridine-Core Naphthoquinone Compounds against Oral Squamous Cell Carcinoma” (Molecules, 2022).
